Some results are limits rather than exact numbers.

The values that follow come from US20220169598A1, “HALOGENATED PHENYLSULFONAMIDE HYDROXAMIC ACID COMPOUNDS, COMPOSITIONS AND USES THEREOF AS SELECTIVE HDAC6 INHIBITORS” (2681603 ONTARIO INC., priority 2019, published 2022).

One series concerns the target T1, HDAC6 (Homo sapiens, UniProt Q9UBN7).
T1 sequence (Q9UBN7 1-1215): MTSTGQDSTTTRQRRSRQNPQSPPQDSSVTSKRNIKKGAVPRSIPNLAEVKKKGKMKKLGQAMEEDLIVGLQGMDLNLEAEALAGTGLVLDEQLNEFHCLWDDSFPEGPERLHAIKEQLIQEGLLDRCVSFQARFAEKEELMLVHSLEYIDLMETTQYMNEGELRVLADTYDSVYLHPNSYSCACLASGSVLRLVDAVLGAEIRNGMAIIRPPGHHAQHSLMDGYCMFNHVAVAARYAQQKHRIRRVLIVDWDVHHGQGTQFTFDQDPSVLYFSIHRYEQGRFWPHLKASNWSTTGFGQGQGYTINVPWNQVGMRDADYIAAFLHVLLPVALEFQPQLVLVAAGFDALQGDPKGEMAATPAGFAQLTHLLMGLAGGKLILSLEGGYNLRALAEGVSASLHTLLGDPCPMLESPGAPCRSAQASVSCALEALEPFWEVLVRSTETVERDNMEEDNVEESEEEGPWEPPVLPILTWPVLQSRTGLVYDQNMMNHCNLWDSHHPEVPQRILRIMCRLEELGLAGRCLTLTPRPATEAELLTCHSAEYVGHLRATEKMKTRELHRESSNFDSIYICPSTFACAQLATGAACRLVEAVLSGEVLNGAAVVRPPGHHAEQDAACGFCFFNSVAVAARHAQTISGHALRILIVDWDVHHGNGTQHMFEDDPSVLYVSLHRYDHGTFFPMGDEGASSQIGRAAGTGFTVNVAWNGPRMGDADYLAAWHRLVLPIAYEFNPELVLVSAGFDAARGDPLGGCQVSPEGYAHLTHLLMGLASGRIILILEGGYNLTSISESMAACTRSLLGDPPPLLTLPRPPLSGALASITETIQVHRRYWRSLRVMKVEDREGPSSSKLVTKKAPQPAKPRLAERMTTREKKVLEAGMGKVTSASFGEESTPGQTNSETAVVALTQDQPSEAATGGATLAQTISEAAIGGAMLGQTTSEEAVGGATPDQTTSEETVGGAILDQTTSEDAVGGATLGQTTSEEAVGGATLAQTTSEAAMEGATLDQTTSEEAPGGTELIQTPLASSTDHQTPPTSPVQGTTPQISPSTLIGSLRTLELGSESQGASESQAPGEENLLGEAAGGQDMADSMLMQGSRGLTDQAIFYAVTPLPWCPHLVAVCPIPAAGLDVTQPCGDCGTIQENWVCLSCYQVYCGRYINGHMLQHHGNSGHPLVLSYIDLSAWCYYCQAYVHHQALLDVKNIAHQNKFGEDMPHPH
In words: Enzyme kinetic parameters, time-based experiments. Format: biochemical. The procedure: To determine the kinetic parameters for the formation and maintenance of the HDAC6:1-18 complex, several time-based experiments were performed, which are shown in Table 2.

Series [1] in a line: Plasma stability by LC-MS. Format: in vitro ADME. To be noted: mouse plasma. The procedure: The stability of select compounds of the application in plasma was assessed quantitatively through LC-MS and the results are shown in Table 6.
The next series concerns panel of 97 kinases. The series is described as follows: Kinome screen. The format is biochemical. To be noted: kinase screen.
Another series addresses T2, HDAC10 (Homo sapiens, UniProt Q969S8).
T2 sequence (Q969S8 1-669): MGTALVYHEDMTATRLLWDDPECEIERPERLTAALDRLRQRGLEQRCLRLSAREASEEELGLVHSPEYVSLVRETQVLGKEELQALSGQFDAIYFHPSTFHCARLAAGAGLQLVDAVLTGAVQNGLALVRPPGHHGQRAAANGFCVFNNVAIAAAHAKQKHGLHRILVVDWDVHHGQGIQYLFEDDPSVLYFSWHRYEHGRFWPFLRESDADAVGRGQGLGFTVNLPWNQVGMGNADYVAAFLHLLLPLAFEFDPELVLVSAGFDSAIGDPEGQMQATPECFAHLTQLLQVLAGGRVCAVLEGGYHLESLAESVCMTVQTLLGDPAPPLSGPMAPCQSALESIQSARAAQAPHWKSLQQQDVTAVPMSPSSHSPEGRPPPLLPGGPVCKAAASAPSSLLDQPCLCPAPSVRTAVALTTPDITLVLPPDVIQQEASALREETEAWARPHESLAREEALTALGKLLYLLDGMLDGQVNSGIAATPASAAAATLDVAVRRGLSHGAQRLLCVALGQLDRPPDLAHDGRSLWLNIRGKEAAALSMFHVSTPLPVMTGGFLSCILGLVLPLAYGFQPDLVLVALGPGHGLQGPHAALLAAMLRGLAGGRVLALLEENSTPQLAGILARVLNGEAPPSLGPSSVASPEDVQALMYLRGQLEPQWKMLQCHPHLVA
The series is described as follows: in vitro activity-based HDAC assay. Format: biochemical. Particulars: human HDAC isoform panel, Table 1.

The target in the next series is HDAC3 (Homo sapiens, UniProt O15379). In words: in vitro activity-based HDAC assay. Format: biochemical. Particulars: human HDAC isoform panel, Table 1.
The subject of the next series is HeLa cells. In words: Immunofluorescence analysis of α-tubulin and histone H3 acetylation. The format is cell-based. To be noted: 6 h treatment. The source says: Similar analysis is shown for exemplary compound I-34 in FIG. 19.
A further series concerns K562. In words: Cytotoxicity in cell lines. Format: cell-based. To be noted: Homo sapiens, K562; Table 4; read-out: IC50 K562. As for the experimental part:
(§1) The cytotoxicity of exemplary compounds of the application was tested in multiple cell lines including MV-4-11, MOLM-13, MCF-7, MRC9, K562 and MM.1S. The therapeutic index was evaluated by determining the toxicity of the exemplary compounds in healthy cell lines including fibroblasts and HUVEC.

Another series concerns MOLM-13. The series is described as follows: Cytotoxicity in cell lines. The format is cell-based. To be noted: Homo sapiens, MOLM-13; Table 4; read-out: IC50 MOLM-13. As for the experimental part:
as §1

The test system of another series is MRC9. The series is described as follows: Cytotoxicity in cell lines. The format is cell-based. To be noted: Table 4. As for the experimental part: as §1
The target of another series is HDAC1 (Homo sapiens, UniProt Q13547). In words: in vitro activity-based HDAC assay. The format is biochemical. To be noted: human HDAC isoform panel, Table 1.
HDAC1, sequence (Q13547 whole entry, canonical isoform): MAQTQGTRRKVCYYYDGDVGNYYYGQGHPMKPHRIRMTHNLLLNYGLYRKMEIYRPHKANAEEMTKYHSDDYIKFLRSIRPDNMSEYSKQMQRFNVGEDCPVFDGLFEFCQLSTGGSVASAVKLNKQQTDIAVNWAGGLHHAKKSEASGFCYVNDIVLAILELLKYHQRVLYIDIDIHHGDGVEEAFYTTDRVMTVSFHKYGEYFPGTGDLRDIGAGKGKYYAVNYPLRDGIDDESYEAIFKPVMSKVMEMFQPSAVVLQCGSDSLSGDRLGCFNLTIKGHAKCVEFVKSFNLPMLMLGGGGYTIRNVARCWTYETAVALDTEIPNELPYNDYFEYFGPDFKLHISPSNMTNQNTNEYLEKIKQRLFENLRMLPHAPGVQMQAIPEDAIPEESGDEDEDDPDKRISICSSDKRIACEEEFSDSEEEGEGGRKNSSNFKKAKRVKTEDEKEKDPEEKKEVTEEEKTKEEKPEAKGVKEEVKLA

HDAC3, sequence (O15379 whole entry, canonical isoform): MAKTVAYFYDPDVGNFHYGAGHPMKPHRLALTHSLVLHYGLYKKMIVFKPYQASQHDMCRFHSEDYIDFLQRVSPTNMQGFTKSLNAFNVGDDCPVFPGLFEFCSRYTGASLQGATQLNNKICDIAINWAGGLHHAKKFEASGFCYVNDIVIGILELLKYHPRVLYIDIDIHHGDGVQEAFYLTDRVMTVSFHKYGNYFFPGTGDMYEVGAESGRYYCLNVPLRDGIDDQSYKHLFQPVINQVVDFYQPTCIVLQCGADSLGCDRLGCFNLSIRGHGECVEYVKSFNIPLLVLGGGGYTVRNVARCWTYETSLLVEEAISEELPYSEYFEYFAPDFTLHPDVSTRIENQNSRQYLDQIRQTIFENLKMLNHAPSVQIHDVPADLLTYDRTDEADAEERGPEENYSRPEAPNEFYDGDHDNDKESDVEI
HDAC3, sequence (Q9Y618 395-489 partner limits assumed): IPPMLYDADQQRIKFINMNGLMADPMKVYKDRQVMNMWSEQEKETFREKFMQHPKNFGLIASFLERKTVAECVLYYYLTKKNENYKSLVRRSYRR

One may read the Ki as the equilibrium dissociation constant of an inhibitor or competing ligand from its target. The IC50 is the point on the concentration scale where inhibition reaches its midpoint. A word on the half-life: it is how long it takes for the measured level to halve. A low value points to rapid decline. `O=C(NO)c1ccc(CN(Cc2cccnc2)S(=O)(=O)c2cc(F)c(F)c(F)c2F)cc1` [Compound I-18, N-hydroxy-4-((2,3,4,5-tetrafluoro-N-(pyridin-3-ylmethyl)phenylsulfonamido)methyl)benzamide] had an inhibitory constant (Ki) on HDAC6 (HDAC6) of 0.0014 µM. Also, the IC50 on HDAC6 (HDAC6, no preincubation) is 0.004 µM; against HDAC10, 0.551 µM; on HDAC3, 0.373 µM. In series [1], this molecule returned a half-life of 1.82 h. The “Remaining Percentage (%) 0 min” value in [1] (0 min) was 100%. The “Remaining Percentage (%) 15 min” value in [1] (15 min) amounted to 96.3%. Further, the “Remaining Percentage (%) 30 min” value in series [1] (30 min) is recorded as 63.0%. In addition, the “Remaining Percentage (%) 45 min” value in series [1] (45 min) was 54.3%. In addition, the “Remaining Percentage (%) 60 min” value in series [1] (60 min) turned out to be 51.3%. Further, the “Remaining Percentage (%) 120 min” value in series [1] (120 min) worked out at 50.1%. In the series on panel of 97 kinases, the “inhibitory activity on a panel of 97 kinases” value is on record as “limited to no inhibitory activity”.
For `O=C(NO)c1ccc(CN(C2CC2)S(=O)(=O)c2cc(F)c(F)c(F)c2F)cc1` [Compound I-13, 4-((N-cyclopropyl-2,3,4,5-tetrafluorophenylsulfonamido)methyl)-N-hydroxybenzamide], in the series on HeLa cells, the “effect on α-tubulin acetylation (immunofluorescence)” value was “substantially strong effect on tubulin acetylation”. Also, the IC50 in the series on K562 was 7.4 µM; in the series with MOLM-13 it was 2 µM; with MRC9 it was above 50 µM; against HDAC10 it was above 1 µM; on HDAC1, above 1 µM.
